Measured values: article PMC10746212 (mBio, 2023)

Target: T1, MdrA (rMdrA) (Brucella abortus, UniProt Q2YN99)
T1 construct: gene BAB1_0783
Conditions: 192 bp btaE promoter fragment, rMucR present, pH 7.4, room temperature; inhibitor of MdrA displacement activity; no direct binding measured

T1 sequence (Q2YN99 1-199 limits assumed): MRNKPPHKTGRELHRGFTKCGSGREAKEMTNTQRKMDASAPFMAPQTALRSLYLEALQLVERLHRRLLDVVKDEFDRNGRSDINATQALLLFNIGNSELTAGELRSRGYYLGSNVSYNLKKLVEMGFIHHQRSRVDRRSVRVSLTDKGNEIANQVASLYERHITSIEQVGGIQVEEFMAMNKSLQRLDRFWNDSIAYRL

C[C@H](CCC(=O)O)[C@H]1CC[C@H]2[C@@H]3CC[C@@H]4C[C@H](O)CC[C@]4(C)[C@H]3C[C@H](O)[C@]12C [deoxycholate]
EMSA, displacement of MucR from 32P-labelled btaE promoter DNA by rMdrA: MdrA can no longer displace MucR from the btaE promoter when deoxycholate
